We go through 14 compounds from patent US20050159352A1, “Use of monocarboxylate transporter protein for thyroid hormone transport” (priority 2002, published 2005).

Like-named read-outs stand apart in the source and are kept apart here.

Data set [1] deals with T1, MCT8 (Rattus norvegicus, UniProt Q8K1P8, G227D/I169T/S199P/T171I). The data set is described as follows: Transport (uptake) of radioactive ligands by MCT8 expressed in X. laevis oocytes. Type of data set: cell-based. On the set-up: the stop codon of MCT8 was removed by performing PCR using the same sense primer as above; expressed in transfected cells; host or cells: Xenopus laevis oocytes injected with cRNA transcribed from pGEM-HeJuel. Particulars: 10 nM iodothyronines or amino acids; MCT8 cRNA-injected vs uninjected oocytes. Here is the method: Xenopus oocytes were isolated and injected with 4.6 ng rat MCTS cRNA. After 3 days, groups of 10 injected or uninjected oocytes were incubated for 60 mm at 25 C with 10 nM radioactive iodothyronines in 0.1 ml medium. Uptake of iodothyronines was determined as previously described (18).
T1 sequence (Q8K1P8 whole entry I169T/T171I/S199P/G227D): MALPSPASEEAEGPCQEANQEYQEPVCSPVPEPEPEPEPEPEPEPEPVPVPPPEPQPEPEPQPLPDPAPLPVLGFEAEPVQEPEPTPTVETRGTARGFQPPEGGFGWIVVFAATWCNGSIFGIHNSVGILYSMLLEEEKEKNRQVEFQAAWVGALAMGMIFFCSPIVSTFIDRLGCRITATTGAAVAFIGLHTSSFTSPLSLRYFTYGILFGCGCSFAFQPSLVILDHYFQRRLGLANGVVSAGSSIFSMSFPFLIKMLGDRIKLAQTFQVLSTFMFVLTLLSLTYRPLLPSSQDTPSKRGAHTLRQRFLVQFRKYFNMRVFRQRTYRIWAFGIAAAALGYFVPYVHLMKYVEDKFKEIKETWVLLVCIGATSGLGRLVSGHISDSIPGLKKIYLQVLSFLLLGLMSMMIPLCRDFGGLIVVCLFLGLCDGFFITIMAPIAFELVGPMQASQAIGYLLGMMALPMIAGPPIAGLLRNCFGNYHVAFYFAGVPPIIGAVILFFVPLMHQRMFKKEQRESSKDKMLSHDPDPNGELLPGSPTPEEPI
(§1) Oocytes were isolated and allowed to recover overnight at 18 C in modified Barth's solution containing 20 IU/ml penicillin and 20 gg/ml streptomycin as described before (23). […] Uninjected or water injected oocytes were used as controls.
(§2) Transport measurements in oocytes—Oocytes were washed and preincubated at 18 C in standard uptake solution (100 mM NaCl, 2 mM KCl, 1 mM CaCl2, 1 mM MgCl2, 10 mM HEPES, and 10 mM Tris, pH 7.5). Usually, transport was tested by incubation of groups of 5-10 oocytes for 2-60 mm at 25 C with 10 nM [1251]iodothyronines or 10 μM [3H]amino acids in 0.1 ml standard uptake solution. The possible Na^+ dependence of transport was tested by preincubation and incubation in Na^+-free uptake solution in which NaCl was replaced by choline chloride. The influence of the temperature on the uptake rate was tested by the incubation of oocytes with uptake solutions at different temperatures between 4 and 37 C. […] The incubation was stopped by aspiration of the medium, and oocytes were washed 4 times at 4 C with standard uptake solution containing 0.1% BSA.

The target of data set [2] is T1, MCT8. The data set is described as follows: Inhibition of uptake of labeled T4 and T3 in MCT8 cRNA-injected oocytes by putative competitors. On the set-up: the stop codon of MCT8 was removed by performing PCR using the same sense primer as above; expressed in transfected cells; host or cells: Xenopus laevis oocytes injected with cRNA transcribed from pGEM-HeJuel. Particulars: for Inhibition of labeled T4 and T3 uptake by MCT8 (in words): unlabeled competitor, taurocholate and probenecid data not shown. Type of data set: cell-based. Here is the method:
as §1
as §2, with “Usually, transport was tested by incubation of groups of 5-10 oocytes for 2-60 mm at 25 C with 10 nM [1251]iodothyronines or 10 μM [3H]amino acids in 0.1 ml standard uptake solution.” left out

In data set [3] the target is T2, MCT8 (Rattus norvegicus, UniProt Q8K1P8).
T2 construct: the stop codon of MCT8 was removed by performing PCR using the same sense primer as above; expressed in transfected cells; host or cells: Xenopus laevis oocytes injected with cRNA transcribed from pGEM-HeJuel
T2 sequence (Q8K1P8 whole entry I169T/T171I/S199P/G227D): as above
The data set is described as above. Type of data set: cell-based. Particulars: labeled T3 10 nm, MCT8 cRNA-injected oocytes. As for the experimental part:
as §1
as §2, with “Usually, transport was tested by incubation of groups of 5-10 oocytes for 2-60 mm at 25 C with 10 nM [1251]iodothyronines or 10 μM [3H]amino acids in 0.1 ml standard uptake solution.” left out

Data set [4] has as its target T3, rat MCT1 (Rattus norvegicus, UniProt P53987).
T3 sequence (P53987 1-494): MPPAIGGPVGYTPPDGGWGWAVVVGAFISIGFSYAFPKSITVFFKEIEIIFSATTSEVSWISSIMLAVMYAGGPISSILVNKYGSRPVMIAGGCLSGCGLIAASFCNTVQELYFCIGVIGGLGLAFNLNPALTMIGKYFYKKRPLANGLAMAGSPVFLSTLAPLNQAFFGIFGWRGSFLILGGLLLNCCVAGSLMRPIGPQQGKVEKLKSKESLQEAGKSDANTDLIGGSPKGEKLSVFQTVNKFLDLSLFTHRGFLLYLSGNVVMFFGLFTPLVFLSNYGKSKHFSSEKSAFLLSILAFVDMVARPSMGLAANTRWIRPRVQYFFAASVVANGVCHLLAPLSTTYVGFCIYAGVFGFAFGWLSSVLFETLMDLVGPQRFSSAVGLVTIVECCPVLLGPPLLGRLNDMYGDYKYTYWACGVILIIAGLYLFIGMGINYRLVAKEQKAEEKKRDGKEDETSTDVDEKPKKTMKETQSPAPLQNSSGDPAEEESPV
Conditions: data not shown.

For data set [5], the target named is T4, rat oatp1 (Rattus norvegicus, UniProt P46720).
T4 sequence (P46720 1-670): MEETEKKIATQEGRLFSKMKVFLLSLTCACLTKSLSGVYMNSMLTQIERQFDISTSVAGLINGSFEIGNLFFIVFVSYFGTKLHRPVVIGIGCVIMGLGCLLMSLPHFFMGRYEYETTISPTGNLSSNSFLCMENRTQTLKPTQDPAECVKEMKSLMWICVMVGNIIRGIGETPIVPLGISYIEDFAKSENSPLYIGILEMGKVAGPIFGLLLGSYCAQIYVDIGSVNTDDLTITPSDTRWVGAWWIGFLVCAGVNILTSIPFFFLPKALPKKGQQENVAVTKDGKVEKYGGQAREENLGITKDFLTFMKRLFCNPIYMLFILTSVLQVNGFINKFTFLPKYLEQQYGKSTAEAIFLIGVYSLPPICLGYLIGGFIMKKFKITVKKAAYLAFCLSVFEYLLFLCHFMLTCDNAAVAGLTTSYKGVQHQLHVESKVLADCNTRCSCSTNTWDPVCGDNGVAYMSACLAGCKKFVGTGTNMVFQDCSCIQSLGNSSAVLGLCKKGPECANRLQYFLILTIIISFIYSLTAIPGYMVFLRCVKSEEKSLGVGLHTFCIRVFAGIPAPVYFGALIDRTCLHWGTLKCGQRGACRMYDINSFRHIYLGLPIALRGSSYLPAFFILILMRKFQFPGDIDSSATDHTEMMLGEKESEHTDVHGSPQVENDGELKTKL
Conditions: literature (10); read-out: Apparent Km values for rat oatp1; cited from earlier work.

Data set [6] deals with T1, MCT8. The data set is described as follows: Uptake and metabolism (sulfation) of rT3 in MCT8 cRNA-injected oocytes. Type of data set: cell-based. On the set-up: the stop codon of MCT8 was removed by performing PCR using the same sense primer as above; expressed in transfected cells; host or cells: Xenopus laevis oocytes injected with cRNA transcribed from pGEM-HeJuel. Conditions: 10 nM rT3, 2-60 min, 25 C. Here is the method:
Analysis of rT3 metabolism in oocytes—Groups of 10 oocytes were incubated for 2-60 mm at 25 C with 10 nM ['25IIrTa. After incubation, medium was collected, and 2 groups of 5 oocytes were counted separately and homogenized in 0.1 ml 0.1 M NaOH as described before (25). Lysates were cleared by centrifugation. Lysates (in duplicate) and incubation media were acidified with 0.1 M HCl and analyzed by Sephadex LH-20 chromatography (21). The different products were successively eluted with 0.1 M HCl (iodide), water (conjugates), and 1% NH4OH in ethanol (iodothyronines).
Metabolism of rT3—Previous studies have shown that X. laevis oocytes actively metabolize rT3 by sulfation. Since sulfotransferases are located intracellularly, we have used this property to investigate rT3 internalization by oocytes. […] At several time points, uninjected and MCT8 cRNA-injected oocytes are homogenized, and the homogenates and medium samples are analyzed for rT3 and rT3 sulfate (rT3S) content. It is shown that already after 2 mm of incubation, rT3S is formed intracellularly in the MCT8 cRNA-injected oocytes. After 10 mm of incubation, release of rT3S into the medium is observed. The production rate of rT3S is much higher in MCT8 cRNA-injected oocytes than in uninjected cells.

Data set [7] has as its target T1, MCT8. The data set is described as follows: Transport kinetics of MCT8-mediated iodothyronine uptake in oocytes (Michaelis-Menten). On the set-up: dose or concentration left out as unconfirmed. Conditions: net transport. Here is the method: Apparent Km values were calculated by fitting the plot of uptake rate (v) versus ligand concentration (5) to the Michaelis Menten equation: v=Vmax/(1+Km/S), wherein Vmax is the maximum uptake rate, and Km the Michaelis constant. Calculations were performed using the Slide Write Plus program version 5.01 (Advanced Graphics Software).

[8] abbreviates: labeled T4 10 nm, inhibitor 100 μM, MCT8 cRNA-injected oocytes.
Where [9] appears, read: labeled T4 10 nm, inhibitor 10 μM, MCT8 cRNA-injected oocytes.

On to `N[C@@H](Cc1ccc(Oc2ccc(O)c(I)c2)c(I)c1)C(=O)O` [T2, 3,3′-diiodothyronine], for which the “Substrate specificity: transport by MCT8 (in words)” value (“Substrate specificity: transport” below) in data set [1] is on record as “rapid uptake”.

Turning to `N[C@@H](Cc1ccccc1)C(=O)O` [Phe], the “Substrate specificity: transport” value in data set [1] is given as “not transported”.

With `N[C@@H](Cc1ccc(O)cc1)C(=O)O` [Tyr], the “Substrate specificity: transport” value in data set [1] is given as “not transported”. The “% inhibition ± SEM of uptake of T4” value in data set [2] (setting [8]) was found to be 37 ± 6%. Besides, the “Inhibition of labeled T4 and T3 uptake by MCT8 (in words)” value (from here on “Inhibition of labeled T4 and T3 uptake”) in data set [2] is on record as “hardly affected”. In data set [3] (inhibitor 100 μM), the “% inhibition ± SEM of uptake of T3” value worked out at 0 ± 9%.

As to `O=C(CBr)N[C@@H](Cc1cc(I)c(Oc2ccc(O)c(I)c2)c(I)c1)C(=O)O` [BrAcT3, N-bromoacetyl-3,3′,5-triiodothyronine], the inhibition at 10 µM in data set [2] (labeled T4 10 nm, inhibitor 10 μM, MCT8 cRNA-injected oocytes, read-out: % inhibition ± SEM of uptake of T4) was found to be 90 ± 3%; in data set [2] (read-out: % inhibition ± SEM of uptake of T3), 67 ± 1%. Further, the “Inhibition of labeled T4 and T3 uptake” value in data set [2] was “potently inhibited”.

On to `CCCN(CCC)S(=O)(=O)c1ccc(C(=O)O)cc1` [probenecid], for which the “Inhibition of labeled T4 and T3 uptake” value in data set [2] is given as “weak effects”.

As for `CC(O)C(=O)O` (centres unmarked) [lactate], the “Transport in rat MCT1 cRNA-injected oocytes compared to control oocytes (in words)” value in data set [4] is reported as “greatly stimulated”. In addition, the “Substrate specificity: transport” value in data set [1] was “unable to demonstrate any transport”.

As for `CC(C)C[C@H](N)C(=O)O` [Leu], the “Substrate specificity: transport” value in data set [1] is given as “not transported”.

Regarding `N[C@@H](Cc1c[nH]c2ccccc12)C(=O)O` [Trp], the “Substrate specificity: transport” value in data set [1] is “not transported”. The “% inhibition ± SEM of uptake of T4” value in data set [2] (setting [8]) is reported as 22 ± 6%. Besides, the “Inhibition of labeled T4 and T3 uptake” value in data set [2] is given as “hardly affected”. Besides, the “% inhibition ± SEM of uptake of T3” value in data set [3] (inhibitor 100 μM) was 0 ± 7%.

On to `N[C@H](Cc1cc(I)c(Oc2ccc(O)c(I)c2)c(I)c1)C(=O)O` [D-T3], for which the “% inhibition ± SEM of uptake of T4” value in data set [2] (setting [9]) is 72 ± 3%. Also, the “Inhibition of labeled T4 and T3 uptake” value in data set [2] is reported as “potently inhibited”. For the same compound, in data set [3] (inhibitor 10 μM), the “% inhibition ± SEM of uptake of T3” value is on record as 24 ± 5%.

Turning to `NS(=O)(=O)O` [T4NS], the “Substrate specificity: transport” value in data set [1] is recorded as “not transported”.

For the compound `N[C@H](Cc1cc(I)c(Oc2cc(I)c(O)c(I)c2)c(I)c1)C(=O)O` [D-T4], the “% inhibition ± SEM of uptake of T4” value in data set [2] (setting [9]) was 76 ± 7%. Besides, the “Inhibition of labeled T4 and T3 uptake” value in data set [2] is on record as “potently inhibited”. Further, the “% inhibition ± SEM of uptake of T3” value in data set [3] (inhibitor 10 μM) was 21 ± 5%.

In the case of `O=C1OC(c2ccc(O)c(S(=O)(=O)O)c2)(c2ccc(O)c(S(=O)(=O)O)c2)c2c(Br)c(Br)c(Br)c(Br)c21` [BSP, bromosulfophthalein], the Michaelis-Menten constant (Km) in data set [5] was 1.5 µM. The “% inhibition ± SEM of uptake of T4” value in data set [2] (setting [8]) was 94 ± 2%. In data set [2], the “Inhibition of labeled T4 and T3 uptake” value is given as “potent inhibitor”. The “% inhibition ± SEM of uptake of T3” value in data set [3] (inhibitor 100 μM) was 81 ± 1%.

For `N[C@@H](Cc1cc(I)c(Oc2cc(I)c(OS(=O)(=O)O)c(I)c2)c(I)c1)C(=O)O` [T4S], in data set [1], the “Substrate specificity: transport” value was “not transported”.

`N[C@@H](Cc1ccc(Oc2cc(I)c(O)c(I)c2)c(I)c1)C(=O)O` [rT3, 3,3′,5′-triiodothyronine]: in data set [6], the “Production rate of rT3S in MCT8 cRNA-injected oocytes versus uninjected cells” value is “much higher”. Also, the “Substrate specificity: transport” value in data set [1] is on record as “rapid uptake”. Besides, in data set [7], the “Saturability of transport by MCT8” value is recorded as “saturable”.
